This is an account of results in patent publication US20100080786A1, “Phenyl or Pyridinyl Substituted Indazoles Derivatives” (priority 2008, published 2010).

Molecules are shown by their SMILES.

For this assay, the target named is T1, Human Glucocorticoid Receptor (GR) (Homo sapiens, UniProt P04150).
T1 construct: The full length GR was diluted to a final concentration of 3.3% (0.495 mg/ml) in assay buffer
T1 sequence (P04150 1-777): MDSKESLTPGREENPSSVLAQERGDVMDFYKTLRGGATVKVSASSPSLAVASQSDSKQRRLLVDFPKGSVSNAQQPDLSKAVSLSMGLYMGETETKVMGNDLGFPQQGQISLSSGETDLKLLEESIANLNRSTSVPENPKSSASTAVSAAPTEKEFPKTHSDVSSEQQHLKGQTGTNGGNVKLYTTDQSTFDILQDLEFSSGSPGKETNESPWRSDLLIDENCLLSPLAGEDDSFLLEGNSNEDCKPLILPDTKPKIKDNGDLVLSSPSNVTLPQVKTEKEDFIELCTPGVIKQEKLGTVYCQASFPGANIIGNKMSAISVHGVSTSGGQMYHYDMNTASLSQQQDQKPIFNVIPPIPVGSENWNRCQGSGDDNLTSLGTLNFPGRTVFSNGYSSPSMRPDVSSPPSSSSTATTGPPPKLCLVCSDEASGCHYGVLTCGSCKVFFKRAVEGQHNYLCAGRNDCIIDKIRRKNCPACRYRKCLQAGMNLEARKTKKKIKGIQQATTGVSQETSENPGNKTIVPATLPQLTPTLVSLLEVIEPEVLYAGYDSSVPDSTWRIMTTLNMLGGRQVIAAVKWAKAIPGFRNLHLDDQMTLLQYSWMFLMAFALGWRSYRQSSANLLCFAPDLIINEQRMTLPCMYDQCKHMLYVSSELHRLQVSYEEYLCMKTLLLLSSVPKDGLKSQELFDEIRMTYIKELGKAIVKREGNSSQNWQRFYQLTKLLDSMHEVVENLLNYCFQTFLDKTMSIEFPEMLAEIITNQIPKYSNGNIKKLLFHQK
Kind of assay: Human Glucocorticoid Receptor (GR) radioligand binding assay (3H-dexamethasone competition). The settings on record: full length GR; 7 nM 3H-dexamethasone; 2 h at room temperature. As to the method: Human Glucocorticoid Receptor (GR) Assay
The radioligand GR binding assay is based on a competition assay using ^3H-labeled Dexamethasone. Dexamethasone is known to bind in the ligand binding domain of GR and compete for binding with endogenous ligands like e.g. cortisol (Necela, 2003). In the GR radioligand binding assay, test compounds were serially diluted in semi-log steps (10 concentrations) with a final concentration of 10 μM. Test compounds (1 μL) and controls (1 μL) in 100% DMSO were added to 96 Greiner V-bottom polypropylene plates. 0% control was 6.7% DMSO (final concentration in assay) and 100% control was 6.7 μM Dexamethasone.
The full length GR was diluted to a final concentration of 3.3% (0.495 mg/ml) in assay buffer (20 mM Tris-HCl, 1 mM EDTA, 10% (w/v) Glycerol, 20 mM Sodium molybdate, pH 7.4). 45 μL of GR was added to each well and the plates were incubated for 15 min at room temperature.
^3H-dexamethasone solution was diluted to a concentration of 70 nM in assay buffer (7 nM final assay concentration) and 5 μL was added to each well. The samples were mixed for 5 min using a plate shaker at 700 rpm, before incubation for 2 h at room temperature.
50 μL ice-cold charcoal solution (pH 7.4:2% Charcoal, 0.2% Dextran T70 in 20 mM Tris-HCl, 1 mM EDTA and 20 mM Sodium molybdate) was added to each well and the samples were mixed on plate shaker for 5 minutes.
The plate was then centrifuged for 1.5 min at 1500 rpm, the samples (80 μL) were is transferred from each well to a filter plate (Millipore, 0.45 μm, MHVBN45) on a vacuum manifold and then collected into new plates (Greiner, 96 well white/transparent, 655095). The filter plate was washed once with 20 μl of water and then 100 μL of scintillation liquid was added to each well and mixed by incubation on plate shaker for 5 min. Radioactivity was measured in a 1450 Microbeta Trilux Reader (Wallac) counting cpm for 2 minutes per well. The data obtained from each replicate experiment were analysed using the software ActivityBase, version 5.4.3 (ID Business Solutions Ltd) and IC50 values were calculated. Ref: Necela, B M, Cidlowski, J A, Trends Pharmacol Sci, 24: 58, 2003
Molecule `COc1ccc([C@@H](Oc2ccc3c(cnn3-c3cccc(C(=O)NC4CCCC4)c3)c2)[C@H](CO)NC(=O)C(C)(F)F)cn1` [Example 27] showed an IC50 of 13.6 nM.

As for `CCC(O)CNC(=O)c1cccc(-n2ncc3cc(O[C@H](c4ccc(OC)nc4)[C@H](C)NC(=O)C(C)(F)F)ccc32)c1` (stereo partly drawn) [Example 26, 3-(5-{[(1R,2S)-2-[(2,2-difluoropropanoyl)amino]-1-(6-methoxypyridin-3-yl)propyl]oxy}-1H-indazol-1-yl)-N-(2-hydroxybutyl)benzamide], the 50% inhibitory concentration (IC50) was determined as 4.13 nM.

`COc1ccc([C@@H](Oc2ccc3c(cnn3-c3cccc(C(=O)NC4CCOC4)c3)c2)[C@H](C)NC(=O)C(C)(F)F)cn1` (stereo partly drawn) [Example 25, 3-(5-{[(1R,2S)-2-[(2,2-difluoropropanoyl)amino]-1-(6-methoxypyridin-3-yl)propyl]oxy}-1H-indazol-1-yl)-N-(tetrahydrofuran-3-yl)benzamide] had an IC50 of 2.99 nM. The IC50 values of the last two molecules are within 1.5-fold of each other.

`CC(=O)NCCNC(=O)c1cccc(-n2ncc3cc(O[C@H](c4ccccc4)[C@H](C)NC(=O)C(C)(F)F)ccc32)c1` [Example 6, N-[2-(acetylamino)ethyl]-3-[5-({(1R,2S)-2-[(2,2-difluoropropanoyl)amino]-1-phenylpropyl}oxy)-1H-indazol-1-yl]benzamide]: the concentration for half-maximal inhibition (IC50) worked out at 5.06 nM.

`C[C@H](NC(=O)C(C)(F)F)[C@H](Oc1ccc2c(cnn2-c2cccc(C(=O)NCCC(N)=O)c2)c1)c1ccccc1` [Example 19, N-(3-amino-3-oxopropyl)-3-[5-({(1R,2S)-2-[(2,2-difluoropropanoyl)amino]-1-phenylpropyl}oxy)-1H-indazol-1-yl]benzamide]: the concentration for half-maximal inhibition (IC50) turned out to be 2.29 nM. This IC50 lies about 2.2-fold lower than the previous one.

For the molecule `C[C@H](NC(=O)C(C)(F)F)[C@H](Oc1ccc2c(cnn2-c2cccc(C(=O)N3CC[C@@H](O)C3)c2)c1)c1ccccc1` [Example 9, 2,2-Difluoro-N-[(1S,2R)-2-{[1-(3-{[(3R)-3-hydroxypyrrolidin-1-yl]carbonyl}phenyl)-1H-indazol-5-yl]oxy}-1-methyl-2-phenylethyl]propanamide], the IC50 is 5.65 nM.

For `C[C@H](NC(=O)C(C)(F)F)[C@H](Oc1ccc2c(cnn2-c2cccc(C(=O)NCCN3CCCC3=O)c2)c1)c1ccccc1` [Example 13, 3-[5-({(1R,2S)-2-[(2,2-difluoropropanoyl)amino]-1-phenylpropyl}oxy)-1H-indazol-1-yl]-N-[2-(2-oxopyrrolidin-1-yl)ethyl]benzamide], the IC50 is 38.4 nM.

`C[C@H](NC(=O)C1(C#N)CC1)[C@H](Oc1ccc2c(cnn2-c2cccc(C(=O)N3CCC[C@@H]3C(N)=O)c2)c1)c1ccccc1` [Example 21, 1-{[3-(5-{[(1R,2S)-2-{-[1(1-cyanocyclopropyl)carbonyl]amino}-1-phenylpropyl]oxy}-1H-indazol-1-yl)phenyl]carbonyl}-D-prolinamide] showed a 50% inhibitory concentration (IC50) of 2.91 nM.

`C[C@H](NC(=O)C(C)(F)F)[C@H](Oc1ccc2c(cnn2-c2cccc(C(=O)NCCN3C(=O)OC(C)(C)C3=O)c2)c1)c1ccccc1` [Example 14, 3-[5-({(1R,2S)-2-[(2,2-difluoropropanoyl)amino]-1-phenylpropyl}oxy)-1H-indazol-1-yl]-N-[2-(5,5-dimethyl-2,4-dioxo-1,3-oxazolidin-3-yl)ethyl]benzamide]: the IC50 is 40.2 nM.

In turn, `C[C@H](NC(=O)C(C)(F)F)[C@H](Oc1ccc2c(cnn2-c2cccc(C(=O)NCc3n[nH]c4ccccc34)c2)c1)c1ccccc1` [Example 16, 3-[5-({(1R,2S)-2-[(2,2-difluoropropanoyl)amino]-1-phenylpropyl}oxy)-1H-indazol-1-yl]-N-(1H-indazol-3-ylmethyl)benzamide] displayed an IC50 of 42.4 nM.

Regarding `C[C@H](NC(=O)C(C)(F)F)[C@H](Oc1ccc2c(cnn2-c2cccc(C(=O)N3C[C@H](O)C[C@H]3C(N)=O)c2)c1)c1ccccc1` [Example 20, (4R)-1-({3-[5-({(1R,2S)-2-[(2,2-difluoropropanoyl)amino]-1-phenylpropyl}oxy)-1H-indazol-1-yl]phenyl}carbonyl)-4-hydroxy-L-prolinamide], the concentration for half-maximal inhibition (IC50) was 75.9 nM.

The molecule `C[C@H](NC(=O)C(C)(F)F)[C@H](Oc1ccc2c(cnn2-c2cccc(C(=O)NCCN3CCNC3=O)c2)c1)c1ccccc1` [Example 7, 3-[5-({(1R,2S)-2-[(2,2-difluoropropanoyl)amino]-1-phenylpropyl}oxy)-1H-indazol-1-yl]-N-[2-(2-oxoimidazolidin-1-yl)ethyl]benzamide] yielded a concentration for half-maximal inhibition (IC50) of 16.9 nM.

In turn, `C[C@H](NC(=O)C(C)(F)F)[C@H](Oc1ccc2c(cnn2-c2cccc(C(=O)NCCO)c2)c1)c1ccccc1` [Example 3, 3-[5-({(1R,2S)-2-[(2,2-difluoropropanoyl)amino]-1-phenylpropyl}oxy)-1H-indazol-1-yl]-N-(2-hydroxyethyl)benzamide] had an IC50 of 1.69 nM.

`COc1ccc([C@@H](Oc2ccc3c(cnn3-c3cccc(C(=O)Nc4cccnc4)c3)c2)[C@H](C)NC(=O)C(C)(F)F)cn1` [Example 23, 3-(5-{[(1R,2S)-2-[(2,2-difluoropropanoyl)amino]-1-(6-methoxypyridin-3-yl)propyl]oxy}-1H-indazol-1-yl)-N-(pyridin-3-yl)benzamide] showed a concentration for half-maximal inhibition (IC50) of 0.86 nM.

Take `COc1ccc([C@@H](Oc2ccc3c(cnn3-c3cccc(C(=O)NCc4cccnc4)c3)c2)[C@H](C)NC(=O)C(C)(F)F)cn1` [Example 28, 3-(5-{[(1R,2S)-2-[(2,2-difluoropropanoyl)amino]-1-(6-methoxypyridin-3-yl)propyl]oxy}-1H-indazol-1-yl)-N-(pyridin-3-ylmethyl)benzamide]: the 50% inhibitory concentration (IC50) is 1.39 nM.

`C[C@H](NC(=O)C(N)=O)[C@H](Oc1ccc2c(cnn2-c2cccc(C(=O)N3CCC[C@@H]3C(N)=O)c2)c1)c1ccccc1` [Example 2, N-[(1S,2R)-2-{[1-(3-{[(2R)-2-carbamoylpyrrolidin-1-yl]carbonyl}phenyl)-1H-indazol-5-yl]oxy}-1-methyl-2-phenylethyl]ethanediamide] had a half-inhibitory concentration (IC50) of 19.9 nM. This IC50 is about 14-fold higher than that of the molecule before.

Take `COc1ccc([C@@H](Oc2ccc3c(cnn3-c3cccc(C(=O)NC4CCCC4)c3)c2)[C@H](C)NC(=O)C(C)(F)F)cn1` [Example 22, N-cyclopentyl-3-(5-{[(1R,2S)-2-[(2,2-difluoropropanoyl)amino]-1-(6-methoxypyridin-3-yl)propyl]oxy}-1H-indazol-1-yl)benzamide]: the concentration for half-maximal inhibition (IC50) was determined as 1.37 nM. Compared with the last molecule, the IC50 is about 15-fold lower.

On to `C[C@H](NC(=O)C(C)(F)F)[C@H](Oc1ccc2c(cnn2-c2cccc(C(=O)N3CCNC(=O)C3)c2)c1)c1ccccc1` [Example 12, 2,2-Difluoro-N-{(1S,2R)-1-methyl-2-[(1-{3-[(3-oxopiperazin-1-yl)carbonyl]phenyl}-1H-indazol-5-yl)oxy]-2-phenylethyl}propanamide], for which the IC50 came out at 2.54 nM.

In turn, `C[C@H](NC(=O)C(C)(F)F)[C@H](Oc1ccc2c(cnn2-c2cccc(C(=O)N[C@@H](C(N)=O)c3ccccc3)c2)c1)c1ccccc1` [Example 17, N-[(1R)-2-amino-2-oxo-1-phenylethyl]-3-[5-({(1R,2S)-2-[(2,2-difluoropropanoyl)amino]-1phenylpropyl}oxy)-1H-indazol-1-yl]benzamide] showed a half-maximal inhibitory concentration (IC50) of 3.55 nM.

The molecule `COc1ccc([C@@H](Oc2ccc3c(cnn3-c3cccc(C(=O)NC4CCS(=O)(=O)C4)c3)c2)[C@H](C)NC(=O)C(C)(F)F)cn1` (stereo partly drawn) [Example 24, 3-(5-{[(1R,2S)-2-[(2,2-difluoropropanoyl)amino]-1-(6-methoxypyridin-3-yl)propyl]oxy}-1H-indazol-1-yl)-N-(1,1-dioxidotetrahydrothiophen-3-yl)benzamide] displayed a half-maximal inhibitory concentration (IC50) of 4.46 nM.
